In EP4740948A1 (Dong Wha Pharm. Co., Ltd., priority 2023, dated 2025):

Experiments:
NCI-H1299 cells = experiment: Cancer cell proliferation inhibition (Cell Counting Kit-8), lung cancer cell line; assay type: cell-based; details: Homo sapiens, NCI-H1299, 264 h, 1000 nM, cultured seven to 11 days; read-out: % inhibition rate NCI-H129 9
Procedure, shortened: (§1)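 After plating 100 to 1,000 cells per well in medium with 10% fetal bovine serum, each line receives 1000 nM compound and is cultured for seven to 11 days. Growth inhibition is derived from CCK-8 signal compared with control cultures.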

EZH2 = EZH2 (Homo sapiens, UniProt Q15910); experiment: AlphaLISA enzyme activity inhibition, EZH2; assay type: biochemical; details: for inhibition at 0.005 µM: 5nM test substance; for inhibition at 0.01 µM: 10nM test substance
EZH2, sequence (Q15910 whole entry, species assumed): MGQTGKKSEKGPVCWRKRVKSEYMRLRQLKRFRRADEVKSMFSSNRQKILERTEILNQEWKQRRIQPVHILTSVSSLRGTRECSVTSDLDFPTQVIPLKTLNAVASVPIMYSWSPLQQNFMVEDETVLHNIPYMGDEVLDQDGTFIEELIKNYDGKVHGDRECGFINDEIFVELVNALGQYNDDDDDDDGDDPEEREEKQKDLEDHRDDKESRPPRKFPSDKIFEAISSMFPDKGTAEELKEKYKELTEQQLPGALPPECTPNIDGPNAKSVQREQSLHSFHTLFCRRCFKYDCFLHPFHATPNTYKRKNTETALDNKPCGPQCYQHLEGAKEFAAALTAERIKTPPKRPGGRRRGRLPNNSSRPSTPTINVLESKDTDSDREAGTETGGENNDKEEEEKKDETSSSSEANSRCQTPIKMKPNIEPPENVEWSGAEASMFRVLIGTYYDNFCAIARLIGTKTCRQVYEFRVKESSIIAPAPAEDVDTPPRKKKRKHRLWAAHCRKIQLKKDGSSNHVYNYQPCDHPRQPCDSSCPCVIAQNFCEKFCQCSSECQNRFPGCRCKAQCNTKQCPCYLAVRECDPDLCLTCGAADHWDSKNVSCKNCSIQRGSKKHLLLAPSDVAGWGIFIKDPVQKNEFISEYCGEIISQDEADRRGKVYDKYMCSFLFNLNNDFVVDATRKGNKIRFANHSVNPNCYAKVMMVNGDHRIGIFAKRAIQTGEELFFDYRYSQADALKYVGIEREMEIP
EZH2, sequence (O75530 whole entry partner, species assumed): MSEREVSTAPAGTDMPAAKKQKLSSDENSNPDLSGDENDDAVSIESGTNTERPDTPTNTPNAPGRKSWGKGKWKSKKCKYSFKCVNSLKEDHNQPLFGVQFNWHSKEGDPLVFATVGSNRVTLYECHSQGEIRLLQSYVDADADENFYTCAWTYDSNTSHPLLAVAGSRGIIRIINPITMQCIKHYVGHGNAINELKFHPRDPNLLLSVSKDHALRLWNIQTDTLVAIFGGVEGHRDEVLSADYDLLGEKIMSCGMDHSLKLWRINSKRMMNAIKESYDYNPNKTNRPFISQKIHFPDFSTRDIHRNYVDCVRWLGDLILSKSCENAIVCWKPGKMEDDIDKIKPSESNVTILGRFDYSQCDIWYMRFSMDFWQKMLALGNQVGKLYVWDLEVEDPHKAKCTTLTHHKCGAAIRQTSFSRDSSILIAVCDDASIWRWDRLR
EZH2, sequence (Q15022 whole entry partner, species assumed): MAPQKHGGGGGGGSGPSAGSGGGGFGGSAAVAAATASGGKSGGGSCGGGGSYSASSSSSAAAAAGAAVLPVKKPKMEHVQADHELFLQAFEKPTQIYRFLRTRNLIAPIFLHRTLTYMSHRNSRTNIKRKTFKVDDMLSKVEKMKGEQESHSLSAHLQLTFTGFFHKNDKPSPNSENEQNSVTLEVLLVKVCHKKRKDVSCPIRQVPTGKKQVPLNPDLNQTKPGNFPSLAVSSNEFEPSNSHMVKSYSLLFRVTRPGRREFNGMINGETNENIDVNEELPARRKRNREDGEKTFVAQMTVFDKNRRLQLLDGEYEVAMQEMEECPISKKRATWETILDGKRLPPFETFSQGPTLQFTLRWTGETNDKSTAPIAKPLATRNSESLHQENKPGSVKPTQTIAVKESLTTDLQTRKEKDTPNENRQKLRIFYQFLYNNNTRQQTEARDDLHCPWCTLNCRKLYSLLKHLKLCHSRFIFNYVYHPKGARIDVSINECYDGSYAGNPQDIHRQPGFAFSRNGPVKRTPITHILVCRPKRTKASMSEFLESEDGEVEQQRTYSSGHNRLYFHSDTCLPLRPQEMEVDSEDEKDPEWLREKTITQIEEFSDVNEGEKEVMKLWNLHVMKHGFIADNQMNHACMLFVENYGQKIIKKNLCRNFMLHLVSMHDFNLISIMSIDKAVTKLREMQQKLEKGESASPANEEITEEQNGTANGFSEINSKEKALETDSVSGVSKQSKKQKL
Procedure, shortened: (§2)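 Enzyme inhibition rate was calculated relative to DMSO from AlphaLISA signal, with acceptor beads added after a 2 h methylation reaction and donor beads 1 h later. Each enzyme, EZH1 or EZH2, was pre-mixed with compound (final 5 nM or 10 nM) in Tris buffer pH 8.0 before histone H3 peptide and SAM initiated the reaction.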

SW-13 cells = experiment: Cancer cell proliferation inhibition (Cell Counting Kit-8), adrenal cancer cell line; assay type: cell-based; details: Homo sapiens, SW13, 264 h, 1000 nM, cultured seven to 11 days; read-out: % inhibition rate SW-13
Procedure, shortened: as §1

Lovo cells = experiment: Cancer cell proliferation inhibition (Cell Counting Kit-8), colorectal cancer cell line; assay type: cell-based; details: Homo sapiens, LoVo, 264 h, 1000 nM, cultured seven to 11 days; read-out: % inhibition rate LoVo
Procedure, shortened: as §1

EZH1 = EZH1 (Homo sapiens, UniProt Q92800); experiment: AlphaLISA enzyme activity inhibition, EZH1; assay type: biochemical; details: for inhibition at 0.005 µM: 5nM test substance; for inhibition at 0.01 µM: 10nM test substance
EZH1, sequence (Q92800 whole entry, species assumed): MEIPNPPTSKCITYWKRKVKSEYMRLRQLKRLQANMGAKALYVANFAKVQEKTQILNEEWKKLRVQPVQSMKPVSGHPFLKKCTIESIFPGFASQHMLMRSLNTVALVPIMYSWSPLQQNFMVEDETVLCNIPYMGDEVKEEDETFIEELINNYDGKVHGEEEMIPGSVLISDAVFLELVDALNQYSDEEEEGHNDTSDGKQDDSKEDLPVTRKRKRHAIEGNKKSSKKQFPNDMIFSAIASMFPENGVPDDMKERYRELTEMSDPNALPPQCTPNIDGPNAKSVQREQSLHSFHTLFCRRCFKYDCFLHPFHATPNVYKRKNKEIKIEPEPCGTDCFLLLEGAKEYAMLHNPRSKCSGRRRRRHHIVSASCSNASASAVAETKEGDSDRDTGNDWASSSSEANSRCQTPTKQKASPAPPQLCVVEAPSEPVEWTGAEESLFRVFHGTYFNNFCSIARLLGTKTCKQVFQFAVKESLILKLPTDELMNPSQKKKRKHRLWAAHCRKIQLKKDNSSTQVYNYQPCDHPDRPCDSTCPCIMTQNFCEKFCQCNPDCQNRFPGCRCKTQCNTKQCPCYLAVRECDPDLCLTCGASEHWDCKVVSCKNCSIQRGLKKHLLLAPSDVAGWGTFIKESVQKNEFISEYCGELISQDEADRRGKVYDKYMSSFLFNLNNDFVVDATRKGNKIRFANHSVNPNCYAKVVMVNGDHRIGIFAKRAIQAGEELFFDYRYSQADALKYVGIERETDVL
EZH1, sequence (O75530 whole entry partner, species assumed): as the sequence (O75530 whole entry partner, species assumed) above
EZH1, sequence (Q15022 whole entry partner, species assumed): as the sequence (Q15022 whole entry partner, species assumed) above
Procedure, shortened: as §2

MKN-45 cells = experiment: Cancer cell proliferation inhibition (Cell Counting Kit-8), gastric cancer cell line; assay type: cell-based; details: Homo sapiens, MKN-45, 264 h, 1000 nM, cultured seven to 11 days; read-out: % inhibition rate MKN -45
Procedure, shortened: (§3)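 Single 1000 nM dose of test substance, applied to cells seeded at 100–1,000 per well in 10% FBS medium, then culture for seven to 11 days. CCK-8 read-out; inhibition rate expressed as percent relative to untreated control.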

G401 cells = experiment: Cancer cell proliferation inhibition (Cell Counting Kit-8), rhabdoid tumor cell line; assay type: cell-based; details: Homo sapiens, G-401, 264 h, 1000 nM, cultured seven to 11 days; read-out: % inhibition rate G401
Procedure, shortened: as §3

MIA-PaCa-2 cells = experiment: Cancer cell proliferation inhibition (Cell Counting Kit-8), pancreatic cancer cell line; assay type: cell-based; details: Homo sapiens, MIA PaCa-2, 264 h, 1000 nM, cultured seven to 11 days; read-out: % inhibition rate MIA-Paca2
Procedure, shortened: as §1

inhibition at 0.005 µM (EZH2)	inhibition at 0.005 µM (EZH1)	inhibition at 0.01 µM (EZH2)	inhibition at 0.01 µM (EZH1)	SMILES	inhibition at 1 µM (NCI-H1299 cells)	inhibition at 1 µM (SW-13 cells)	inhibition at 1 µM (Lovo cells)	inhibition at 1 µM (MKN-45 cells)	inhibition at 1 µM (G401 cells)	inhibition at 1 µM (MIA-PaCa-2 cells)
41.1%	24.9%			CSc1cc(C)[nH]c(=O)c1CNC(=O)c1cc(-c2ccc(N3CCSCC3)nc2)c2c(c1C)OC(C)(C1CCN(CC(F)(F)F)CC1)O2 (stereo not drawn) [Compound 34, 2,4-dimethyl-N-((6-methyl-4-(methylthio)-2-oxo-1,2-dihydropyridin-3-yl)methyl)-7-(6-thiomorpholinopyridin-3-yl)-2-(1-(2,2,2-trifluoroethyl)piperidin-4-yl)benzo[d][1,3]dioxole-5-carboxamide]	≤ 30%	≤ 30%	≥ 70%	≤ 30%	30 to 70%	≤ 30%
94%	67.7%			CSc1cc(C)[nH]c(=O)c1CNC(=O)c1cc(-c2cnc(N(C)C)nc2)c2c(c1C)OC(C)(C1CCN(CC(F)(F)F)CC1)O2 (stereo not drawn) [Compound 35, 7-(2-(dimethylamino)pyrimidin-5-yl)-2,4-dimethyl-N-((6-methyl-4-(methylthio)-2-oxo-1,2-dihydropyridin-3-yl)methyl)-2-(1-(2,2,2-trifluoroethyl)piperidin-4-yl)benzo[d][1,3]dioxole-5-carboxamide]	≤ 30%	≤ 30%	≥ 70%	≤ 30%	≥ 70%	≤ 30%
83.1%	57.4%			COc1ccc(-c2cc(C(=O)NCc3c(SC)cc(C)[nH]c3=O)c(C)c3c2OC(C)(C2CCN(CC(F)(F)F)CC2)O3)cn1 (stereo not drawn) [Compound 36, 7-(6-methoxypyridin-3-yl)-2,4-dimethyl-N-((6-methyl-4-(methylthio)-2-oxo-1,2-dihydropyridin-3-yl)methyl)-2-(1-(2,2,2-trifluoroethyl)piperidin-4-yl)benzo[d][1,3]dioxole-5-carboxamide]	≤ 30%	≤ 30%	≥ 70%	≤ 30%	≥ 70%	≤ 30%
57.4%	40.6%			CSc1cc(C)[nH]c(=O)c1CNC(=O)c1cc(-c2cnc(N3C[C@@H](C)O[C@@H](C)C3)nc2)c2c(c1C)OC(C)(C1CCN(CC(F)(F)F)CC1)O2 (stereo partly drawn) [Compound 38, 7-(2-((2S,6R)-2,6-dimethylmorpholino)pyrimidin-5-yl)-2,4-dimethyl-N-((6-methyl-4-(methylthio)-2-oxo-1,2-dihydropyridin-3-yl)methyl)-2-(1-(2,2,2-trifluoroethyl)piperidin-4-yl)benzo[d][1,3]dioxole-5-carboxamide]	30 to 70%	≤ 30%	≥ 70%	30 to 70%	≥ 70%	≤ 30%
62%	20.5%			CSc1cc(C)[nH]c(=O)c1CNC(=O)c1cc(-c2cnc(N3CCCCC3)nc2)c2c(c1C)OC(C)(C1CCN(CC(F)(F)F)CC1)O2 (stereo not drawn) [Compound 39, 2,4-dimethyl-N-((6-methyl-4-(methylthio)-2-oxo-1,2-dihydropyridin-3-yl)methyl)-7-(2-(piperidin-1-yl)pyrimidin-5-yl)-2-(1-(2,2,2-trifluoroethyl)piperidin-4-yl)benzo[d][1,3]dioxole-5-carboxamide]	≤ 30%	≤ 30%	≥ 70%	≤ 30%	30 to 70%	≤ 30%
94.6%	73.8%			CSc1cc(C)[nH]c(=O)c1CNC(=O)c1cc(-c2ccc(N3C[C@@H](C)O[C@@H](C)C3)nc2)c2c(c1C)OC(C)(C1CCN(C[C@H](C)O)CC1)O2 (stereo partly drawn) [Compound 40, 7-(6-((2S,6R)-2,6-dimethylmorpholino)pyridin-3-yl)-2-(1-((S)-2-hydroxypropyl)piperidin-4-yl)-2,4-dimethyl-N-((6-methyl-4-(methylthio)-2-oxo-1,2-dihydropyridin-3-yl)methyl)benzo[d][1,3]dioxole-5-carboxamide]	30 to 70%	30 to 70%	30 to 70%	≤ 30%	≥ 70%	≤ 30%
96.8%	69.1%			COC(CN1CCC(C2(C)Oc3c(-c4ccc(N5C[C@@H](C)O[C@@H](C)C5)nc4)cc(C(=O)NCc4c(SC)cc(C)[nH]c4=O)c(C)c3O2)CC1)OC (stereo partly drawn) [Compound 41, 2-(1-(2,2-dimethoxyethyl)piperidin-4-yl)-7-(6-((2S,6R)-2,6-dimethylmorpholino)pyridin-3-yl)-2,4-dimethyl-N-((6-methyl-4-(methylthio)-2-oxo-1,2-dihydropyridin-3-yl)methyl)benzo[d][1,3]dioxole-5-carboxamide]	≤ 30%	≤ 30%	≥ 70%	≤ 30%	≥ 70%	≤ 30%
90.5%	59.6%			CSc1cc(C)[nH]c(=O)c1CNC(=O)c1cc(-c2ccsc2)c2c(c1C)OC(C)(C1CCC(N(C)C)CC1)O2 (stereo not drawn) [Compound 42, 2-(4-(dimethylamino)cyclohexyl)-2,4-dimethyl-N-((6-methyl-4-(methylthio)-2-oxo-1,2-dihydropyridin-3-yl)methyl)-7-(thiophen-3-yl)benzo[d][1,3]dioxole-5-carboxamide]	30 to 70%	30 to 70%	≥ 70%	30 to 70%	≥ 70%	≤ 30%
94.6%	65.6%			COc1ccc(F)cc1-c1cc(C(=O)NCc2c(SC)cc(C)[nH]c2=O)c(C)c2c1OC(C)(C1CCC(N(C)C)CC1)O2 (stereo not drawn) [Compound 43, 2-(4-(dimethylamino)cyclohexyl)-7-(5-fluoro-2-methoxyphenyl)-2,4-dimethyl-N-((6-methyl-4-(methylthio)-2-oxo-1,2-dihydropyridin-3-yl)methyl)benzo[d][1,3]dioxole-5-carboxamide]	30 to 70%	≤ 30%	≥ 70%	30 to 70%	≥ 70%	≤ 30%
59.2%	44.7%	84%	63%	CSc1cc(C)[nH]c(=O)c1CNC(=O)c1cc(-c2ccc(N3C[C@@H](C)O[C@@H](C)C3)nc2)c2c(c1C)OC(C)(C1CCN(CC(F)F)CC1)O2 (stereo partly drawn) [Compound 46, 2-(1-(2,2-difluoroethyl)piperidin-4-yl)-7-(6-((2S,6R)-2,6-dimethylmorpholino)pyridin-3-yl)-2,4-dimethyl-N-((6-methyl-4-(methylthio)-2-oxo-1,2-dihydropyridin-3-yl)methyl)benzo[d][1,3]dioxole-5-carboxamide]	30 to 70%	30 to 70%	≥ 70%	30 to 70%	≥ 70%	≤ 30%
86.5%	53%	99.4%	78.2%	CSc1cc(C)[nH]c(=O)c1CNC(=O)c1cc(-c2ccc(N3CCOCC3)nc2)c2c(c1C)OC(C)(C1CCN(CC(F)(F)F)CC1)O2 (stereo not drawn) [Compound 61, 2,4-dimethyl-N-((6-methyl-4-(methylthio)-2-oxo-1,2-dihydropyridin-3-yl)methyl)-7-(6-morpholinopyridin-3-yl)-2-(1-(2,2,2-trifluoro)piperidin-4-yl)benzo[d][1,3]dioxole-5-carboxamide]	30 to 70%	≤ 30%	≥ 70%	30 to 70%	≥ 70%	≤ 30%
87.3%	56.4%	99.7%	78.9%	CSc1cc(C)[nH]c(=O)c1CNC(=O)c1cc(-c2cnc(N3CCOCC3)nc2)c2c(c1C)OC(C)(C1CCN(CC(F)(F)F)CC1)O2 (stereo not drawn) [Compound 68, 2,4-dimethyl-N-((6-methyl-4-(methylthio)-2-oxo-1,2-dihydropyridin-3-yl)methyl)-7-(2-morpholinopyrimidin-5-yl)-2-(1-(2,2,2-trifluoro)piperidin-4-yl)benzo[d][1,3]dioxole-5-carboxamide]	≤ 30%	30 to 70%	≥ 70%	30 to 70%	≥ 70%	≤ 30%
